Data on five compounds can be found in BindingDB's records for doi:10.1074/jbc.M112.419069 (John Innes Centre, 2013).

pIC50: −log10 of the molar value.

Sequence of DNA gyrase subunit A (P9WG47 whole entry): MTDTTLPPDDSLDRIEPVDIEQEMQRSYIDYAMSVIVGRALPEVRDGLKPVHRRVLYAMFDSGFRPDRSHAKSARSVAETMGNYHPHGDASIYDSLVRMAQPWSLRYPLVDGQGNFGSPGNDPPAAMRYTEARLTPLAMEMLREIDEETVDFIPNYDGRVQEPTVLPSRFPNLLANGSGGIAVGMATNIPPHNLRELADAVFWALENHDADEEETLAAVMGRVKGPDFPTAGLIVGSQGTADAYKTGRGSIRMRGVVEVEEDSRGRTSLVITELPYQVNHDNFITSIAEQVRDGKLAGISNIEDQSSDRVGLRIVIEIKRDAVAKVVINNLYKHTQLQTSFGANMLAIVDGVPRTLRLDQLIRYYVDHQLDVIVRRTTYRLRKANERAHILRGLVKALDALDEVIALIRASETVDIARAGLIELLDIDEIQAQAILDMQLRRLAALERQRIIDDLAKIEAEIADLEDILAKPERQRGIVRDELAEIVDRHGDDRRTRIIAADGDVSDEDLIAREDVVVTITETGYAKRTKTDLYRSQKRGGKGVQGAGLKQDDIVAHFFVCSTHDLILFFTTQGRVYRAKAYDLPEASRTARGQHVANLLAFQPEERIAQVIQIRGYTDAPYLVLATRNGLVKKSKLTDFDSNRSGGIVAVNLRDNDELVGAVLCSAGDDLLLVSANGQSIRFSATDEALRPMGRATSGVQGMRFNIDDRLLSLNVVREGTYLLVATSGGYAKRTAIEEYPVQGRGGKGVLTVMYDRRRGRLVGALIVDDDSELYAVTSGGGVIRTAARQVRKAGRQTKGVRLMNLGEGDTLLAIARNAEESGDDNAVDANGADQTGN

The target of this assay is DNA gyrase subunit A (Mycobacterium tuberculosis (strain ATCC 25618 / H37Rv), UniProt P9WG47). Nature of the assay: Enzyme Assay. As to the method:
Mycobacterium tuberculosis gyrase supercoiling, relaxation, and decatenation assays were carried out as described previously.
The pIC50 is the negative decadic logarithm of the IC50, by convention in mol/L. Read a low pIC50 as a large IC50. For `Cc1cc(O)c2c(c1)C(=O)C=CC2=O` [5-Hydroxy-7-methyl-[1,4]naphthoquinone], the negative-log IC50 (pIC50) was 4.52.

As to `Cc1cc(O)c2c(c1)C(=O)C(c1c(C)cc3c(c1O)C(=O)C=CC3=O)=CC2=O` [Diospyrin], the pIC50 was 4.82.

On to `Cc1cc2c(c(O)c1-c1c(C)cc(O)c3c1C(=O)C=CC3=O)C(=O)C=CC2=O` [Isodiospyrin], for which the negative-log IC50 (pIC50) was 4.00.

Take `Cc1cc(O)c2c(c1)C(=O)C=C(c1c(C)cc(O)c3c1C(=O)C=CC3=O)C2=O` [Neodiospyrin]: the negative-log IC50 (pIC50) was 4.30.

Compound `CC1=CC(=O)c2ccccc2C1=O` [Vitamin K3] gave a pIC50 of less than 3.70.
